Where two headings read alike, the source gives them in different places.
How the values were obtained:
Type in all cases: in vivo
Spodoptera litura = experiment: Pest control test against Spodoptera litura, cabbage leaf disk foliar spray; conditions: for mortality at 500 ppm: Spodoptera litura, 72 h, read-out: mortality of larvae
Protocol: Test Example 2 Pest Control Test Against Spodoptera litura
(§1) A leaf disk having a diameter of 5.0 cm was cut out from a cabbage in pot culture, and a drug solution of the compound of the present invention at a predetermined concentration, which had been prepared so as to be a 50% acetone water (0.05% Tween20 available), was sprayed to the leaf disk. After an air drying process, third instar larvae were released thereto. Thereafter, the larvae were left to stand in a thermostatic chamber (16 hours of light period-8 hours of dark period) at 25° C. […] Test in duplicate.
(§2) Mortality of larvae(%)={number of dead larvae/(number of survived larvae+number of dead larvae)}×100

[1] = tested on: Frankliniella occidentalis; experiment: Pest control test of Frankliniella occidentalis, kidney bean leaf disk foliar spray; conditions: for % Mortality, Test Example7 Frankliniella occidentalis: foliar treatment
Text: Test Example 7 Pest Control Test of Frankliniella occidentalis
as §1, with “2.8” for “5.0”, “kidney bean” for “cabbage”, “first” for “third”
as §2

Nilaparvata lugens = experiment: Pest control test of Nilaparvata lugens, soil irrigation treatment; conditions: for mortality of larvae: soil irrigation, 0.05 mg/seedling, three days after release; for % Mortality, Test Example 12 Nilaparvata lugens: soil irrigation treatment
Protocol: Test Example 12 Pest Control Test of Nilaparvata lugens
(§3) A rice seedling in pot culture was subjected to soil irrigation treatment with a drug solution of the compound of the present invention at a predetermined concentration, which had been prepared so as to be a 10% acetone water. Three days after the treatment, ten second instar larvae of Nilaparvata lugens were each released thereto. Thereafter, the larvae were left to stand in a thermostatic chamber (16 hours of light period-8 hours of dark period) at 25° C. […] The test was performed in duplicate.
as §2

Plutella xylostella = Plutella xylostella control test, cabbage leaf disk foliar spray; conditions: for % Mortality, Test Example1 Plutella xylostella: foliar treatment; for mortality at 100 ppm: foliar treatment at 100 ppm, second instar larvae, three days after release
Protocol: Test Example 1 Plutella xylostella Control Test
as §1, with “second” for “third”
mortality larvae(%)={number of dead larvae/(number of survived larvae+number of dead larvae)}×100

Laodelphax striatella = experiment: Pest control test of Laodelphax striatella, soil irrigation treatment of rice seedling; conditions: for mortality of larvae: soil irrigation, 0.05 mg/seedling, three days after release; for % Mortality, Test Example 10 Laodelphax striatella: soil irrigation treatment
Text: <Soil Irrigation Treatment Test>
Test Example 10 Pest Control Test of Laodelphax striatellua
as §3, with “Laodelphax striatella” for “Nilaparvata lugens”
as §2

[2] = tested on: imidacloprid susceptible populations of Nilaparvata lugens; experiment: Soil irrigation test, imidacloprid susceptible populations of Nilaparvata lugens
Protocol: as §3, with “Three days after the treatment, ten second instar larvae of Nilaparvata lugens were each released thereto.” left out
as §2
Further, for comparison, the test against some population of Nilaparvata lugens which is highly susceptible to imidacloprid was performed by the same method as described above, and the results thereof are shown in Table 43.
(§4) Further, for the origin of test pests, bugs collected outdoors within the Kumamoto prefecture in 2007 as the drug resistant Nilaparvata lugens, and bugs collected within the Kagoshima prefecture and then successively reared indoors for a long time as the imidacloprid susceptible populations of Nilaparvata lugens were used.

[3] = tested on: Nilaparvata lugens exhibiting drug resistance to imidacloprid; conditions: soil irrigation; for Insecticidal effects against Nilaparvata lugens (mortality of larvae %), Drug resistant populations three days after the treatment: Rate 0.05 mg/pot; for insecticidal effects against drug resistant Nilaparvata lugens: imidacloprid-resistant; for mortality of larvae against drug resistant populations compared with susceptible populations of Nilaparvata lugens: imidacloprid-resistant vs susceptible
Protocol: Test Example 18 Pest Control Test of Drug-Resistant Nilaparvata lugens
as §3, with “Three days after the treatment, ten second instar larvae of Nilaparvata lugens were each released thereto.” left out
as §2, §4

[4] = tested on: Trigonotylus caelestialium; experiment: Pest control test of Trigonotylus caelestialium, wheat seedling dipping
Text: Test Example 8 Pest Control Test of Trigonotylus caelestialium
Wheat seedling leaves and stems four days after the dissemination of seedlings were dipped for 30 seconds in a drug solution of the compound of the present invention at a predetermined concentration, which had been prepared so as to be a 50% acetone water (0.05% Tween20 available). After an air drying process, the wheat seedling leaves and stems were placed into a glass tube, and two second instar larvae of Trigonotylus caelestialium were released to the same glass tube. After the larvae were released, the tube was lidded to leave the larvae to stand in a thermostatic chamber at 25° C. In order to supply water to the wheat during the test, water was given to the wheat from the bottom of the glass tube.
as §2

Aphis gossypii = experiment: Pest control test of Aphis gossypii, cucumber leaf disk foliar spray; conditions: for % Mortality, Test Example3 Aphis gossypii: foliar treatment; for mortality at 20 ppm / mortality at 100 ppm: Aphis gossypii, 72 h, first instar larvae, three days after release, read-out: mortality of larvae; for mortality at 20 ppm: foliar treatment at 20 ppm; for mortality at 100 ppm: foliar treatment at 100 ppm
Protocol: Test Example 3 Pest Control Test of Aphis gossypii
as §1, with “2.0” for “5.0”, “cucumber” for “cabbage”, “first” for “third”
as §2

Musca domestica = experiment: Pest control test of Musca domestica adults, sucrose pledget; conditions: 50 ppm in 40% sucrose liquid; four days after release
Protocol: Test Example 21 Pest Control Test of Musca domestica
A drug solution of the compound of the present invention, which had been adjusted to be 50 ppm with a 40% sucrose liquid, was adsorbed on a pledget, and the pledget was put into a vial. Two adults reared indoors were released thereto. Thereafter, the adults were left to stand indoors at room temperature of 25° C. […] When two adults were all agonized in death, it was judged to be effective.

[5] = Plutella xylostella, 72 h, read-out: mortality of larvae

## CCNC(=S)N=c1ccccn1Cc1ccc(Cl)nc1 [Comparative Example 8, 1-[1-((6-chloropyridine-3-yl)methyl)pyridine-2(1H)-ylidene]-3-ethylthiourea, reference compound]
Spodoptera litura; foliar
  mortality at 500 ppm: 10%
[1]; Frankliniella occidentalis, foliar, 72 h, read-out: mortality of larvae
  mortality at 500 ppm: 15%
Nilaparvata lugens
  mortality of larvae: 15%
Plutella xylostella; Plutella xylostella, foliar, 72 h, read-out: mortality of larvae
  mortality at 500 ppm: 20%
Laodelphax striatella
  mortality of larvae: 0%
[2]; Rate 0.05 mg/pot
  Insecticidal effects against Nilaparvata lugens (mortality of larvae %), Susceptible populations three days after the treatment: 15%

## CCOC(=O)NC(=S)/N=c1\ccccn1Cc1ccc(Cl)nc1 [Comparative Example 9, 1-[1-((6-chloropyridine-3-yl)methyl)pyridine-2(1H)-ylidene]-3-ethoxycarbonylthiourea, reference compound]
Spodoptera litura; foliar treatment at 500 ppm, third instar larvae, three days after release
  mortality at 500 ppm: 11%
Nilaparvata lugens
  mortality of larvae: 0%
Laodelphax striatella
  mortality of larvae: 0%
[2]; Rate 0.05 mg/pot
  Insecticidal effects against Nilaparvata lugens (mortality of larvae %), Susceptible populations three days after the treatment: 0%

## FC(F)C(=S)N=c1ccccn1Cc1ccc(Cl)nc1 [Compound 1-21]
[3]
  Insecticidal effects against Nilaparvata lugens (mortality of larvae %), Drug resistant populations three days after the treatment: 50%
  insecticidal effects against drug resistant Nilaparvata lugens: high insecticidal effects
  mortality of larvae against drug resistant populations compared with susceptible populations of Nilaparvata lugens: equivalent mortality of larvae
Spodoptera litura; foliar treatment, 100 ppm
  % Mortality, Test Example2 Spodoptera litura: 55%
[1]; 20 ppm
  % Mortality, Test Example7 Frankliniella occidentalis: 80%
[1]; 100 ppm
  % Mortality, Test Example7 Frankliniella occidentalis: 90%
[4]; 2 ppm
  % Mortality, Test Example8 Trigonotylus caelestialium: 67%
[4]; 10 ppm
  % Mortality, Test Example8 Trigonotylus caelestialium: 100%
[4]; 50 ppm
  % Mortality, Test Example8 Trigonotylus caelestialium: 100%
Aphis gossypii; 0.313 ppm
  % Mortality, Test Example3 Aphis gossypii: 55%
Aphis gossypii; 1.25 ppm
  % Mortality, Test Example3 Aphis gossypii: 100%
Aphis gossypii; 5 ppm
  % Mortality, Test Example3 Aphis gossypii: 100%
Aphis gossypii; 20 ppm
  % Mortality, Test Example3 Aphis gossypii: 100%
Aphis gossypii; 100 ppm
  % Mortality, Test Example3 Aphis gossypii: 100%
Musca domestica
  activity against adults (effective when two adults were all agonized in death): all the adults are agonized in death
Nilaparvata lugens; 0.01 mg/pot
  % Mortality, Test Example 12 Nilaparvata lugens: 10%
Nilaparvata lugens; 0.05 mg/pot
  % Mortality, Test Example 12 Nilaparvata lugens: 85%
Plutella xylostella; 20 ppm
  % Mortality, Test Example1 Plutella xylostella: 10%
Plutella xylostella; 100 ppm
  % Mortality, Test Example1 Plutella xylostella: 80%
Laodelphax striatella; 0.01 mg/pot
  % Mortality, Test Example 10 Laodelphax striatella: 20%
Laodelphax striatella; 0.05 mg/pot
  % Mortality, Test Example 10 Laodelphax striatella: 100%
[2]; Rate 0.05 mg/pot
  Insecticidal effects against Nilaparvata lugens (mortality of larvae %), Susceptible populations three days after the treatment: 67%

## FC(F)(Cl)C(=S)N=c1ccccn1Cc1ccc(Cl)nc1 [Compound 1-22]
[3]
  Insecticidal effects against Nilaparvata lugens (mortality of larvae %), Drug resistant populations three days after the treatment: 60%
  insecticidal effects against drug resistant Nilaparvata lugens: high insecticidal effects
  mortality of larvae against drug resistant populations compared with susceptible populations of Nilaparvata lugens: equivalent mortality of larvae
Musca domestica
  activity against adults (effective when two adults were all agonized in death): all the adults are agonized in death
[2]; Rate 0.05 mg/pot
  Insecticidal effects against Nilaparvata lugens (mortality of larvae %), Susceptible populations three days after the treatment: 75%

## FC(F)(F)C(F)(F)C(=S)N=c1ccccn1Cc1ccc(Cl)nc1 [Compound 1-23]
[3]
  Insecticidal effects against Nilaparvata lugens (mortality of larvae %), Drug resistant populations three days after the treatment: 70%
  insecticidal effects against drug resistant Nilaparvata lugens: high insecticidal effects
  mortality of larvae against drug resistant populations compared with susceptible populations of Nilaparvata lugens: equivalent mortality of larvae
Musca domestica
  activity against adults (effective when two adults were all agonized in death): all the adults are agonized in death
[2]; Rate 0.05 mg/pot
  Insecticidal effects against Nilaparvata lugens (mortality of larvae %), Susceptible populations three days after the treatment: 85%

## C=CCON=C(/N=c1\ccccn1Cc1ccc(Cl)nc1)C(F)(F)F [Compound 1-507, N′-(aryloxy)-N-[1-((6-chloropyridin-3-yl)methyl)pyridin-2(1H)-ylidene]-2,2,2-trifluoroacetimidamide]
Aphis gossypii
  mortality at 20 ppm: ≥ 80%
  mortality at 100 ppm: ≥ 80%
Plutella xylostella; [5]
  mortality at 100 ppm: ≥ 80%

## CCCNC(=O)O/N=C(/N=c1\ccccn1Cc1ccc(Cl)nc1)C(F)(F)F [Compound 1-534, N-[1-((6-chloropyridin-3-yl)methyl)pyridin-2(1H)-ylidene]-2,2,2-trifluoro-N′-((propylcarbamoyl)oxy)acetimidamide]
Plutella xylostella; [5]
  mortality at 100 ppm: ≥ 80%

## O=C(/N=c1\ccccn1Cc1ccc(F)nc1)C(F)F [Compound 3-3, 2,2-difluoro-N-[1-((6-fluoropyridin-3-yl)methyl)pyridin-2(1H)-ylidene]acetamide]
[1]; Frankliniella occidentalis, 72 h, foliar treatment at 100 ppm, first instar larvae, three days after release, read-out: mortality of larvae
  mortality at 100 ppm: ≥ 80%
[4]; Trigonotylus caelestialium, 72 h, dipping treatment of the drug solution at 10 ppm, three days after treatment, read-out: mortality of larvae
  mortality at 10 ppm: ≥ 80%
Aphis gossypii
  mortality at 20 ppm: ≥ 80%
  mortality at 100 ppm: ≥ 80%
Musca domestica
  activity against adults (effective when two adults were all agonized in death): all the adults are agonized in death
Plutella xylostella; [5]
  mortality at 100 ppm: ≥ 80%

## O=C(N=c1ccccn1Cc1cnc(Cl)nc1)C(F)F [Compound 6-3]
Musca domestica
  activity against adults (effective when two adults were all agonized in death): all the adults are agonized in death

## O=C(N=c1ccccn1Cc1cnc(Cl)nc1)C(F)(F)Cl [Compound 6-4]
Musca domestica
  activity against adults (effective when two adults were all agonized in death): all the adults are agonized in death

## O=C(N=c1ccccn1Cc1cnc(Cl)nc1)C(F)(F)C(F)(F)F [Compound 6-5]
Musca domestica
  activity against adults (effective when two adults were all agonized in death): all the adults are agonized in death

## O=C(N=c1cccnn1Cc1ccc(Cl)nc1)C(F)(F)F [Compound 223-2]
Musca domestica
  activity against adults (effective when two adults were all agonized in death): all the adults are agonized in death

## O=[N+]([O-])NC1=NCCN1Cc1ccc(Cl)nc1 [Imidacloprid]
[2]; Rate 0.01 mg/pot
  Insecticidal effects against Nilaparvata lugens (mortality of larvae %), Susceptible populations three days after the treatment: 73%
[2]; Rate 0.05 mg/pot
  Insecticidal effects against Nilaparvata lugens (mortality of larvae %), Susceptible populations three days after the treatment: 90%
